From PubChem BioAssay AID1963838 (Molecular Pharmacology Branch, DTP, NCI, 2024)
pIC50: −log10 of the molar value. Values joined by “and” are separate entries in the source; they are usually repeats but may differ in a detail not shown here. Equal values may be shown once.

System: 855422-203-R-J1-PDC complex spheroid viability
Test: Anticancer human tumor 855422-203-R-J1-PDC patient-derived bladder carcinoma cell line growth inhibition [POLQ]
Conditions: for viability, T/C: stronger effect = lower value
Description: Multicellular complex tumor spheroid response to Polymerase (POL) inhibitors (novobiocin, ART-558, RP6685) in combination with a variety of drugs and investigational agents in selected tumor cell lines
The POL inhibitors (novobiocin, ART-558, and RP6685) were evaluated both individually and in combination with standard of care and investigational anticancer small molecules within a complex spheroid model of solid tumors. . Complex spheroids include a stromal component modeled by human endothelial cells (HUVEC) and fibroblasts modeled by human mesenchymal stem cells (MSCs). The concentration ranges selected for each drug and investigational agent were based upon clinically achievable concentrations if the clinical Cmax of the agent was known.
Compounds. The drugs and investigational agents: novobiocin (NSC847541), ART-558 (NSC835418), RP-6685 (NSC848927), peposertib (NSC802822), ceralasertib (NSC780249), elimusertib (NSC800525), camonsertib (NSC841442), AZD-1390 (NSC803789), olaparib (NSC753686), talazoparib (NSC767125), rucaparib (NSC756644), sotorasib (NSC818433), MRTX-1133 (NSC836407), SN-38 (NSC673596), topotecan (NSC609699), epotoside (NSC141540), doxorubicin (NSC123127), gemcitabine (NSC613327), 5-fluorouracil (NSC19893), paclitaxel (NSC125973), vemurafenib (NSC761431), MSA-2 (NSC828583), SN-011 (NSC837082), adavosertib (NSC754352), prexasertib (NSC758257), carboplatin (NSC241240) and oxaliplatin (NSC266046), were obtained from the National Cancer Institute (NCI) Developmental Therapeutics Program Chemical Repository (21). The FDA-approved anticancer drug set is available from the Developmental Therapeutics Program at https://dtp.cancer.gov/organization/dscb/obtaining/. […] The stock solutions were prepared in dimethyl sulfoxide (DMSO, Sigma-Aldrich, St. Louis, MO, cat. D2650), except for the platinum compounds which were prepared in saline (Quality Biological, Gaithersburg, MD, cat. 114-055-101), at 800-fold the tested concentration and stored at -70 degrees C prior to their use. All drugs and investigational agents were tested over a range starting from a high concentration at or near the clinical Cmax and decreasing in half-log increments. If the clinical Cmax for an agent had not been determined, the highest concentration tested was 10 microM, except for SN-38, which was tested at a high concentration of 1 microM.
Cell Culture. All cells were maintained in an incubator at 37 degrees C and 5% CO2 with 95% humidity. The PDC lines were cultured according to standard operating procedures established by the NCI PDMR (https://pdmr.cancer.gov). Table 3 of the manuscript, lists the cell lines along with the number of the three cell types plated to form the mct-spheroids and media for tumor cell growth. After thawing, all PDC lines, except 997537-175-T-J1-PDC and 415267-285-R-J2-PDC, were cultured in Matrigel-coated flasks prepared with a working solution of 1X Ham's F-12 nutrient mix, without supplementation (Thermo Fisher Scientific, cat. 11765054), 100 U/mL penicillin-streptomycin (Thermo Fisher Scientific, cat. 15140122), and 2.5% Matrigel (Corning Inc., Corning, NY, cat. 354248) for the first three passages. The two PDC lines 997537-175-T-J1-PDC and 415267-285-R-J2-PDC were cultured on uncoated flasks. The 857933-349-R-J2-PDC line was cultured in 6C/Colon 1B media containing advanced DMEM/F-12 (Thermo Fisher Scientific, cat. 12634028), 10 mM HEPES (Thermo Fisher Scientific, cat. 15630080), 1X GlutaMAX supplement (Thermo Fisher Scientific, cat. 35050061), 0.1 mg/mL primocin (InvivoGen, San Diego, CA, cat. ant-pm-2), 10% defined fetal bovine serum, heat inactivated (HyClone Laboratories Inc., Logan, UT, cat. SH30070.03HI), 50% L-WRN conditioned media (ATCC, cat. CRL-3276), 1.25 mM N-Acetyl-L-cysteine (Sigma-Aldrich, cat. A9165), 10 mM nicotinamide (Sigma-Aldrich, cat. N0636), 1X B-27 supplement (Thermo Fisher Scientific, cat. 17504044), 1X N-2 supplement (Thermo Fisher Scientific, cat. […]
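Further: spheroids exposed to compounds for seven days before readout.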

CC[C@@]1(O)C(=O)OCc2c1cc1n(c2=O)Cc2cc3c(CN(C)C)c(O)ccc3nc2-1 + COC1C(OC(N)=O)C(O)C(Oc2ccc3c(O)c(NC(=O)c4ccc(O)c(CC=C(C)C)c4)c(=O)oc3c2C)OC1(C)C
pIC50 (curve of first compound, second compound 0.0316 µM): 7.45 | pIC50 (curve of first compound, second compound 0.1 µM): 7.52 | pIC50 (curve of first compound, second compound 0.316 µM): 7.52 | pIC50 (curve of first compound, second compound 1 µM): 7.56 | pIC50 (curve of first compound, second compound 3.16 µM): 7.63 | pIC50 (curve of first compound, second compound 10 µM): 7.65 | viability, T/C (second compound 0.0316 µM, first compound 0.000316 µM): 125% | viability, T/C (second compound 0.0316 µM, first compound 0.001 µM): 123% | viability, T/C (second compound 0.0316 µM, first compound 0.00316 µM): 116% | viability, T/C (second compound 0.0316 µM, first compound 0.01 µM): 126% | viability, T/C (second compound 0.0316 µM, first compound 0.0316 µM): 53.5% | viability, T/C (second compound 0.0316 µM, first compound 0.1 µM): 14.7% | viability, T/C (second compound 0.1 µM, first compound 0.000316 µM): 108% | viability, T/C (second compound 0.1 µM, first compound 0.001 µM): 111% | viability, T/C (second compound 0.1 µM, first compound 0.00316 µM): 104% | viability, T/C (second compound 0.1 µM, first compound 0.01 µM): 113% | viability, T/C (second compound 0.1 µM, first compound 0.0316 µM): 47.8% | viability, T/C (second compound 0.1 µM, first compound 0.1 µM): 11.8% | viability, T/C (second compound 0.316 µM, first compound 0.000316 µM): 116% | viability, T/C (second compound 0.316 µM, first compound 0.001 µM): 110% | viability, T/C (second compound 0.316 µM, first compound 0.00316 µM): 122% | viability, T/C (second compound 0.316 µM, first compound 0.01 µM): 101% | viability, T/C (second compound 0.316 µM, first compound 0.0316 µM): 48.2% | viability, T/C (second compound 0.316 µM, first compound 0.1 µM): 11.7% | viability, T/C (second compound 1 µM, first compound 0.000316 µM): 116% | viability, T/C (second compound 1 µM, first compound 0.001 µM): 124% | viability, T/C (second compound 1 µM, first compound 0.00316 µM): 112% | viability, T/C (second compound 1 µM, first compound 0.01 µM): 91.7% | viability, T/C (second compound 1 µM, first compound 0.0316 µM): 44.7% | viability, T/C (second compound 1 µM, first compound 0.1 µM): 10.6% | viability, T/C (second compound 3.16 µM, first compound 0.000316 µM): 112% | viability, T/C (second compound 3.16 µM, first compound 0.001 µM): 108% | viability, T/C (second compound 3.16 µM, first compound 0.00316 µM): 109% | viability, T/C (second compound 3.16 µM, first compound 0.01 µM): 112% | viability, T/C (second compound 3.16 µM, first compound 0.0316 µM): 28.4% | viability, T/C (second compound 3.16 µM, first compound 0.1 µM): 11.7% | viability, T/C (second compound 10 µM, first compound 0.000316 µM): 117% | viability, T/C (second compound 10 µM, first compound 0.001 µM): 107% | viability, T/C (second compound 10 µM, first compound 0.00316 µM): 117% | viability, T/C (second compound 10 µM, first compound 0.01 µM): 98.9% | viability, T/C (second compound 10 µM, first compound 0.0316 µM): 29.6% | viability, T/C (second compound 10 µM, first compound 0.1 µM): 16.2%

COc1cccc(OCCCN)c1-c1cc(Nc2cnc(C#N)cn2)n[nH]1
viability, T/C (compound 0.00316 µM): 108% and 98.1% and 104% | viability, T/C (compound 0.01 µM): 86.8% and 138% and 132% | viability, T/C (compound 0.0316 µM): 12.2% and 23.8% and 37.9% | viability, T/C (compound 0.1 µM): 9.96% and 13.6% and 17.5% | viability, T/C (compound 0.316 µM): 5.57% and 7.75% and 6.55% | viability, T/C (compound 1 µM): 4.87% and 6.23% and 5.82% | pIC50 (curve of compound): 7.75 and 7.64 and 7.58

CCc1cc2c(N3CCc4c(cc(Cn5ccnc5)cc4-c4cn(C)nc4C(F)(F)F)C3=O)ccnc2c(OC)n1
viability, T/C (compound 0.0316 µM): 83.3% and 126% and 119% | viability, T/C (compound 0.1 µM): 84.9% and 133% and 116% | viability, T/C (compound 0.316 µM): 73.8% and 136% and 139% | viability, T/C (compound 1 µM): 74.3% and 100% and 104% | viability, T/C (compound 3.16 µM): 47.2% and 73.1% and 78.9% | viability, T/C (compound 10 µM): 32.6% and 47.8% and 46.6% | pIC50 (curve of compound): 5.54 and 5.02 and 5.05
